Article PMC5100981 (Antiviral research, 2016)
Where two headings read alike, the source gives them in different places.

How the values were obtained:
[1] = tested on: Rhinovirus 87 (F02-3607 Corn strain); assay: CPE inhibition assay; assay type: cell-based
[2] = tested on: EV-D68 (US/KY/14-18953 strain); assay: Virus yield reduction; assay type: cell-based, Enterovirus D68
in vitro [3] = details: human, uninfected A549 lung carcinoma cells, stationary monolayers
EV-D68/US/KY/14-18953 [4] = assay: CPE inhibition; assay type: cell-based, Enterovirus D68; details: for SI, selectivity index (CC50 / EC50): A549 cells; for EC50: Enterovirus D, EVD68, A549, read-out: EC50, 50% effective concentration
EV-D68/US/KY/14-18953 [5] = assay: CPE inhibition; assay type: cell-based, Enterovirus D68; details: for EC50: Enterovirus D, EVD68, HeLa Ohio1, read-out: EC50, 50% effective concentration; for SI, selectivity index (CC50 / EC50): HeLa-Ohio-1 cells
in vitro [6] = details: human
[7] = tested on: Enterovirus D68 (Fermon strain); assay: CPE inhibition assay; assay type: cell-based; details: for EC50: Enterovirus D, RD, read-out: EC50, 50% effective (virus-inhibitory) concentration
[8] = tested on: Enterovirus 71 (Tainan/4643/98 strain); assay: CPE inhibition assay; assay type: cell-based
[9] = tested on: RD human rhabdomyosarcoma cells
EV-71 = details: ref Zhang et al., 2013; cited from earlier work
[10] = EV-D68 US/KY/14-18953, RD cells
[11] = Enterovirus D68/Fermon, RD cells

## CC(C)S(=O)(=O)n1c(N)nc2ccc(/C(=N/O)c3ccccc3)cc21 [Enviroxime, enviroxime]
[1]; Rhinovirus 87, RD cells
  SI, selectivity index (CC50 / EC50): 500
[2]; [10]
  SI, selectivity index (CC50 [from Table 1] / EC90): 156
In vitro [3]
  CC50: 68 ± 13 µM
EV-D68/US/KY/14-18953 [4]
  SI, selectivity index (CC50 / EC50): 89
  EC50: 0.77 ± 1.1 µM
EV-D68/US/KY/14-18953 [5]
  EC50: 1.7 ± 0.72 µM
  SI, selectivity index (CC50 / EC50): 45
In vitro [6]; uninfected RD rhabdomyosarcoma cells, stationary monolayers
  CC50: 66 ± 28 µM
[7]; [11]
  SI, selectivity index (CC50 / EC50): 352
[7]
  EC50: 0.27 ± 0.19 µM
[8]; Enterovirus 71, RD cells
  SI, selectivity index (CC50 / EC50): 92

## CCOC(=O)c1ccc(OCCC2CCN(c3ccc(C)nn3)CC2)cc1 [Pirodavir, pirodavir]
[2]; CPE inhibited at much lower concentration than virus yield
  Overall activity against EV-D68 virus (in words): poorly effective
[2]; [10]
  SI, selectivity index (CC50 [from Table 1] / EC90): <1
EV-D68/US/KY/14-18953 [4]
  SI, selectivity index (CC50 / EC50): 13
  EC50: 11 ± 7.2 µM
EV-D68/US/KY/14-18953 [5]
  EC50: 6.1 ± 2.8 µM
  SI, selectivity index (CC50 / EC50): 5.3
[7]; [11]
  SI, selectivity index (CC50 / EC50): 3
[7]
  EC50: 7 ± 3 µM
[9]
  CC50: 32 ± 18 µM
[8]; Enterovirus 71, RD cells
  SI, selectivity index (CC50 / EC50): 24

## Nc1cc2nc[nH]c2c(=O)[nH]1 [3-Deazaguanine, 3-deazaguanine]
[1]
  SI, selectivity index (CC50 / EC50): 45
[2]
  SI, selectivity index (CC50 [from Table 1] / EC90): 45
In vitro [6]
  CC50: 360 ± 227 µM
[7]
  SI, selectivity index (CC50 / EC50): 54
  EC50: 6.7 ± 1.6 µM
[8]
  SI, selectivity index (CC50 / EC50): 5

## Cc1cc(CCCOc2c(C)cc(-c3noc(C(F)(F)F)n3)cc2C)on1 [Pleconaril, pleconaril]
[1]
  SI, selectivity index (CC50 / EC50): 7
[2]
  SI, selectivity index (CC50 [from Table 1] / EC90): 54
In vitro [6]
  CC50: 11.3 ± 6.3 µM
[7]
  SI, selectivity index (CC50 / EC50): 87
  EC50: 0.13 ± 0.09 µM

## NC(=O)c1ncn([C@@H]2O[C@H](CO)[C@@H](O)[C@H]2O)n1 [Ribavirin, ribavirin]
In vitro [6]
  CC50: 1100 ± 450 µM
[7]
  EC50: 147 ± 74 µM

## CCOC(=O)/C=C/[C@H](C[C@@H]1CCNC1=O)NC(=O)[C@@H](CC(=O)[C@@H](NC(=O)c1cc(C)on1)C(C)C)Cc1ccc(F)cc1 [Rupintrivir, rupintrivir]
[1]
  SI, selectivity index (CC50 / EC50): 25280
[2]
  SI, selectivity index (CC50 [from Table 1] / EC90): 33,500
In vitro [6]
  CC50: 134 ± 21 µM
EV-71
  Treatment of EV-71 infection in suckling mice (mortality and clinical scores): effective
[7]
  SI, selectivity index (CC50 / EC50): 60910
  EC50: 0.0022 µM
[8]
  SI, selectivity index (CC50 / EC50): 7450
